# Test results reported in PMC10225205 (Cancer Medicine, 2023).
# Read-outs that look alike come from different tables or passages of the source.
# Key:
# [1] = human, in vivo
# Experimental: Postdose samples were collected at 0.5, 1, 2, 4, 6, and 8 h on Day 1, and at 1 h on Day 14 of Cycle 1. For patients in the CD regimen, a postdose sample at 6 h on Day 14 was also collected.
# Pharmacodynamic data were presented using summary statistics.
# [2] = system: advanced solid tumors; experiment: FIGHT-102 efficacy, investigator-assessed RECIST 1.1; format: in vivo, human; set-up: key to Best overall response: PR, partial response; SD, stable disease; PD, progressive disease; NE, not evaluable
# Experimental: Efficacy assessments occurred at screening (baseline scan) and on Day 15 of every third cycle with a ±2‐day window. Tumor status was assessed by the investigator using appropriate disease‐specific techniques. For solid tumors, the Response Evaluation Criteria in Solid Tumors (RECIST) 1.1 criteria were used,[19] and the recommended method for measuring tumor burden was computed tomography scan. Alternative modalities compatible with RECIST 1.1 could be used at the investigator's discretion provided they were used consistently throughout the study.
# Both the efficacy and the safety population included all patients who received at least 1 dose of study drug. The PK/pharmacodynamic population included all patients who received at least one dose of study drug and provided at least one postdose plasma sample for PK/pharmacodynamic measurement. No comparisons are made between patients or against historical controls; only comparisons to pretreatment conditions were made.
# [3] = Part 1, 13.5 mg ID, breast cancer, local no alteration detected
# [4] = Part 1, 13.5 mg ID, cholangiocarcinoma, central FGF1 amp, FGFR2 amp
# [5] = Part 1, 13.5 mg ID, other (intrahepatic cholangiocarcinoma), central no alteration detected
# [6] = Part 1, 13.5 mg ID, other (lower bile duct cancer), central FGF6 mutation (p.S143N)
# [7] = Part 1, 18 mg ID, neuroendocrine cancer, local FGF6/23 amp
# [8] = Part 1, 18 mg ID, other (intrahepatic cholangiocarcinoma), not tested
# [9] = Part 2, 13.5 mg CD, breast cancer, local FGFR1 amp, FGFR3 mutation
# [10] = Part 2, 13.5 mg CD, colorectal cancer, central FGFR1 amp
# [11] = Part 2, 13.5 mg CD, gallbladder cancer, central FGF3/4/19 amp
# [12] = Part 2, 13.5 mg CD, other (prostate cancer), central FGFR1 amp
# [13] = Part 2, 13.5 mg CD, other (rectal cancer), central FGFR1 amp
# [14] = Part 2, 13.5 mg CD, other (uterine cervix carcinoma), central FGFR2 amp
# [15] = Part 2, 13.5 mg CD, urothelial tract/bladder cancer (bladder cancer), central FGF3/4/19 amp, FGFR3 alteration
# [16] = Part 2, 13.5 mg CD, urothelial tract/bladder cancer (renal pelvis cancer), central FGF3/4/19 amp
compound,measurement,setting,value
CCN1C(=O)N(c2c(F)c(OC)cc(OC)c2F)Cc2cnc3[nH]c(CN4CCOCC4)cc3c21 [Pemigatinib],Geometric mean fraction of dose excreted in urine,[1],2.48%
same,"CLss/F, geometric mean (CV%)",[1]; 9 mg,8.99 (91.0) L/h
same,"CLss/F, mean ± SD",[1]; 9 mg,10.6 ± 6.31 L/h
same,"tmax, median",[1]; 9 mg,58 min
same,"CLss/F, geometric mean (CV%)",[1]; 18 mg,5.63 (43.8) L/h
same,"CLss/F, mean ± SD",[1]; 18 mg,5.96 ± 2.50 L/h
same,"tmax, median",[1]; 18 mg,50 min
same,Best overall response of complete response or PR,[2]; Part 1,no patient
same,Median best percentage change from baseline in target lesion size,[2]; Part 1,−2.6%
same,Best overall response stable disease,"[2]; Part 1, 7 patients",50.0%
same,Best overall response,"[2]; Part 1, 9 mg ID, gastric cancer",SD
same,Best change in sum of target lesion diameters,"[2]; Part 1, 9 mg ID, gastric cancer, central and local not tested",–13.3%
same,Best overall response,"[2]; Part 1, 9 mg ID, other (epithelioid hemangioendothelioma)",SD
same,Best change in sum of target lesion diameters,"[2]; Part 1, 9 mg ID, other (epithelioid hemangioendothelioma), central and local not tested",–12.6%
same,Best overall response,"[2]; Part 1, 9 mg ID, other (medulloblastoma), local no alteration detected",PD
same,Best change in sum of target lesion diameters,[2]; [3],28.1%
same,Best overall response,[2]; [3],PD
same,Best change in sum of target lesion diameters,[2]; [4],–8.5%
same,Best overall response,[2]; [4],SD
same,Best overall response,"[2]; Part 1, 13.5 mg ID, colorectal cancer, FGFR1 amp",PD
same,Best change in sum of target lesion diameters,"[2]; Part 1, 13.5 mg ID, colorectal cancer, central and local FGFR1 amp",–21.1%
same,Best overall response,"[2]; Part 1, 13.5 mg ID, lung cancer (NSCLC)",SD
same,Best change in sum of target lesion diameters,"[2]; Part 1, 13.5 mg ID, lung cancer (NSCLC), not tested",–29.0%
same,Best change in sum of target lesion diameters,[2]; [5],4.4%
same,Best overall response,[2]; [5],SD
same,Best change in sum of target lesion diameters,[2]; [6],–5.1%
same,Best overall response,[2]; [6],SD
same,Best change in sum of target lesion diameters,[2]; [7],37.5%
same,Best overall response,[2]; [7],PD
same,Best change in sum of target lesion diameters,"[2]; Part 1, 18 mg ID, other (intrahepatic cholangiocarcinoma), central none, local FGFR2 fusion",0%
same,Best overall response,"[2]; Part 1, 18 mg ID, other (intrahepatic cholangiocarcinoma), local FGFR2 fusion",SD
same,Best change in sum of target lesion diameters,[2]; [8],16.7%
same,Best overall response,[2]; [8],PD
same,Best overall response,"[2]; Part 1, 18 mg ID, other (pancreatic head cancer)",PD
same,Best change in sum of target lesion diameters,"[2]; Part 1, 18 mg ID, other (pancreatic head cancer), local no alteration detected",1.0%
same,Median of best percentage change from baseline in target lesion size,[2]; Part 2,15.2%
same,Patients achieving PR,"[2]; Part 2, 13.5 mg CD",4 n
same,Patients achieving PR,"[2]; Part 2, 13.5 mg ID",1 n
same,Partial response,"[2]; Part 2, 5 patients",16.7%
same,Stable disease,"[2]; Part 2, 6 patients",20%
same,Best change in sum of target lesion diameters,[2]; [9],6.4%
same,Best overall response,[2]; [9],NE
same,Best overall response,"[2]; Part 2, 13.5 mg CD, breast cancer, local FGFR2 amp (best change –26.2%)",SD
same,Best overall response,"[2]; Part 2, 13.5 mg CD, breast cancer, local FGFR2 amp (best change –44.4%)",PR
same,Best change in sum of target lesion diameters,"[2]; Part 2, 13.5 mg CD, breast cancer, local FGFR2 amp (patient with PR)",–44.4%
same,Best change in sum of target lesion diameters,"[2]; Part 2, 13.5 mg CD, breast cancer, local FGFR2 amp (patient with SD)",–26.2%
same,Best change in sum of target lesion diameters,"[2]; Part 2, 13.5 mg CD, cholangiocarcinoma, central none, local FGFR2 translocation",–30.6%
same,Best overall response,"[2]; Part 2, 13.5 mg CD, cholangiocarcinoma, local FGFR2 translocation",PR
same,Best change in sum of target lesion diameters,[2]; [10],26.5%
same,Best overall response,[2]; [10],PD
same,Best change in sum of target lesion diameters,"[2]; Part 2, 13.5 mg CD, colorectal cancer, central none, local FGF19 amp",41.0%
same,Best overall response,"[2]; Part 2, 13.5 mg CD, colorectal cancer, local FGF19 amp",PD
same,Best overall response,"[2]; Part 2, 13.5 mg CD, esophageal cancer, FGFR3 translocation: fusion",SD
same,Best change in sum of target lesion diameters,"[2]; Part 2, 13.5 mg CD, esophageal cancer, central and local FGFR3 translocation: fusion",–4.3%
same,Best change in sum of target lesion diameters,[2]; [11],–43.8%
same,Best overall response,[2]; [11],PR
same,Best change in sum of target lesion diameters,[2]; [12],15.2%
same,Best overall response,[2]; [12],PD
same,Best change in sum of target lesion diameters,[2]; [13],0.0%
same,Best overall response,[2]; [13],SD
same,Best change in sum of target lesion diameters,[2]; [14],22.7%
same,Best overall response,[2]; [14],PD
same,Best change in sum of target lesion diameters,[2]; [15],–37.2%
same,Best overall response,[2]; [15],PR
same,Best change in sum of target lesion diameters,[2]; [16],12.1%
same,Best overall response,[2]; [16],PD
same,Best change in sum of target lesion diameters,"[2]; Part 2, 13.5 mg ID, breast cancer, central FGFR1 amp",18.1%
